Laboratory results as given in US9797002B2, “Methods and kits for genome-wide methylation of GpC sites and genome-wide determination of chromatin structure” (UNIVERSITY OF SOUTHERN CALIFORNIA, priority 2010, dated 2017).

System: LD419
Experiment: RT-PCR analysis of L1-MET reactivation after 5-Aza-CdR treatment
Format: cell-based, human
Conditions: LD419 fibroblast cell line, 1 or 3 μM 5-Aza-CdR for 24 hours (day 3 after treatment), β-actin control
From the text: (A) The functional domains of MET include the signal peptide (SP), sema domain at the N-terminus, the PSI domain, IPT repeats, the transmembrane domain (TM), and the kinase domain at the C-terminus. The structure of truncated MET proteins 1 and 2 are shown, encoded by transcripts derived from placenta (GenBank accession no. BX334980) and a bladder carcinoma cell line (BF208095), respectively. (B) The two […] transcripts, truncated L1-MET-1 (T-MET-1) and truncated L1-MET-2 (T-MET-2), were cloned into a pMEV expression vector with 2 HA tags fused at the N-terminal. Hela cells were transfected with either the empty pMEV vector, pMEV T-MET-1, or pMEV T-MET-2 and protein was extracted after 48 hours. The expression of truncated MET-1 (90 kDa) and truncated MET-2 (60 kDa) was detected by western blot using an HA antibody. (C) Results of 5′RACE reveal the start site for L1-MET within the L1 element. The transcriptional start site of L1-MET was confirmed by 5′RACE in the T24 cell line which expressed L1-MET. The underlined sequence is located inside of the LINE-1. […] Found at: doi:10.1371/journal.pgen. 1000917.s002 (1.22 MB TIF)
The transcript from the L1-MET anti-sense promoter contains its own exons 1 and 2, referred to as L1-MET exon 1 and L1-MET exon 2 (FIG. 7A). […]
Quantitative RT-PCR. Expression was determined by quantitative RT-PCR as described previously.

## Nc1ncn([C@H]2C[C@H](O)[C@@H](CO)O2)c(=O)n1 [5-aza-deoxycytidine]
  expression (reactivation) of the L1-MET transcript: lead to expression of L1-MET
Listed as 5-Aza-CdR
  expression (reactivation) of the L1-MET transcript: reactivation of L1-MET
